Values joined by “and” are separate entries in the source; they are usually repeats but may differ in a detail not shown here. Equal values may be shown once. Read-outs that look alike come from different tables or passages of the source. Marks after values point to notes of the source that are not given here.
How the values were obtained:
[1] = tested on: gastric mucosa; test: Gastric ulcerogenic effects after repeated oral administration; type: in vivo, male Swiss Wistar rats; conditions: for Mean score of Lesion intensity: 7 consecutive days
From the text: Gastric ulcerogenic effects of Test compound and celecoxib after repeated oral administration for 7 consecutive days to the male Swiss Wistar rats.
In the control group, structure of the gastric mucosa appears normal.

[2] = tested on: Cotton pellet Granuloma; test: Sub acute study: cotton pellet granuloma; type: in vivo, Swiss Wistar rats; conditions: dried pellet weight after 7 days
Description: This evaluates inflammation over a period of 7 days. This is done by classical animal model (in Swiss Wistar tats) of cotton pallet granuloma. Celecoxib is a positive control for comparison of the efficacy of Test Compound.
100 mg per kg is the optimal dose. A comparison is made with Celecoxib.

[3] = tested on: paw edema in Carrageenan model; test: Acute study: Carrageenan induced paw edema; type: in vivo, Swiss Wistar rats; conditions: paw volume at 3 hrs
Description: These tests are for the inhibition of inflammation caused by prostaglandins in short period of time. This can be tested in animal (Swiss Wistar rats) as per well known protocols which are treated with Carrageenan. This model tests out anti-inflammatory activity caused by prostaglandin inhibition. Celecoxib is given as a positive control to do a comparison and evaluate the efficacy of anti-inflammatory purified extract as described above in Prostaglandin inhibition in 3 hrs.
Paw Volume measured is compared with Control group and standard drug, celecoxib. Paw volume initial to the paw volume at 1 h, 2 h, 3 h is measured and peak inhibition, which is at 3 hrs is noted down. In this model efficacy as well as dosage of drug is arrived by considering peak % inhibition. […] This is also not statistically significant.

[4] = tested on: TNF-α; test: TNF-α level in serum of FCA induced arthritic rat; type: in vivo
Description: (§1) This activity mimics the onset of autoimmune damage to joints and tests the efficiency of drug against this damage. Leflunamide is taken as positive control. Here Swiss Wistar rats are treated with Freunds Complete Adjuvant (CFA) to induce chronic inflammation symptoms similar to rheumatis diseases. The symptoms appear by 13th day. The drug treatment is started from 13th day to 23rd day for 10 days.
Effect of Test compound and standard drug Celecoxib on TNF-α level in FCA induced arthritis rat. The serum from the FCA induced arthritic rat was examined for Tumor necrosis factor alpha. The experimental protocol was same as example no.

[5] = tested on: patients with rheumatoid arthritis
[6] = tested on: C-reactive protein; test: C-reactive protein test (CRP test kit) in FCA arthritis model; type: in vivo, Swiss Wistar rats; conditions: for C-reactive protein After 10 Day Treatment / C-reactive protein Before Treatment: CRP test kit, precipitate
Description: This activity mimics the onset of autoimmune damage to joints and tests the efficiency of drug against this damage. Leflunamide is taken as positive control. Here Swiss Wistar rats are treated with Freunds Complete Adjuvant (CFA) to induce chronic inflammation symptoms similar to rheumatis diseases. The symptoms appear by 13th day. The drug treatment is started from 13th day to 23rd day for 10 days. […] In this method the CRP test kit ([…], Dreadnought Trading Estate Bridgeport Dorset DT6 5BU UK) was used for the measurement of CRP. The results are expressed either […] or -ve depending on the formation of precipitate Normal range of CRP: up to 6 mg/L. Below this level is considered to be negative.

[7] = tested on: FCA induced arthritis; test: Chronic study: FCA (Freunds Complete Adjuvant) induced arthritis; type: in vivo, Swiss Wistar rats; conditions: for Anti-inflammatory activity (% Inhibition) in FCA induced arthritis Day 18: treatment from 13th day
Description: as §1
In addition, a disseminated arthritic reaction (secondary response) developed from […] alter FCA injection. The swelling was observed both in the injected paw and in the non-injected contra lateral paw. The reduction of the planter volume was statistically significant for both hind legs. The test compound gave a very impressive reduction of 52% at 100 mg per kg dose which is statistically significant. This compared very well with DMARD drug Leflunomide. However, Leflunomide is highly nephrotoxic and cannot be administered for a long time.

[8] = male, Swiss Wistar, rat, in vivo, po, 5 mg/kg, 7 days
[9] = out of the total 70 patients recruited

Cc1ccc(-c2cc(C(F)(F)F)nn2-c2ccc(S(N)(=O)=O)cc2)cc1 [Celecoxib, reference compound]
Mean score of Lesion intensity ([1]; Dose 5 mg/kg p.o.): 1.6 | Average of no. of ulcer per animal [1, 8]: 2 | No. of animals with ulcer [1, 8]: 2 | No. of animals with ulcer (%) [1, 8]: 33.3% | Ulcer Index (UI) [1, 8]: 3.7 | Anti-inflammatory activity (% Inhibition) in Cotton pellet Granuloma ([2]; Dose 10 mg/kg): 43.2** % | Anti-inflammatory activity (% Inhibition) in Carrageenan model In 3 Hrs. ([3]; Dose 10 mg/kg): 45.2** % | Concentration of TNF-α in pg/mL Day 0 [4]: 28.9 pg/mL | Concentration of TNF-α in pg/mL Day 13 [4]: 47.9 pg/mL | Concentration of TNF-α in pg/mL Day 21 ([4]; Day 21): 33.6 pg/mL

CC(COC1OC(CO)C(O)C(O)C1O)C(C)CC1(O)CC2CC3C4CC=C5CC(OC6OC(CO)C(O)C(O)C6OC6OC(C)C(O)C(O)C6O)CCC5(C)C4CCC3(C)C2C1C (stereo not shown) [Test compound]
Mean score of Lesion intensity ([1]; Dose 200 mg/kg p.o.): Nil | Average of no. of ulcer per animal ([1]; rat, in vivo, po, 200 mg/kg): Nil | No. of animals with ulcer (%) ([1]; rat, in vivo, po, 200 mg/kg): Nil | Ulcer Index (UI) ([1]; rat, in vivo, po, 200 mg/kg): Nil | HAQ (Health Assessment Questionnaire) 12 mths (mean) ([5]; 12 months): 4.4 | JCSW (Joint count swelling) 12 mths (mean) ([5]; 12 months): 1.6 | JCPT (Joint Count Pain/Tenders) 12 mths (mean) ([5]; 12 months, 16 mg per kg body weight): 5.5 | CRP (C Reactive Protein), nephlometry, over time ([5]; 12 months, FIG. 2, listed as test compound): reduction | RF (Rheumatoid factor) Titre, nephlometry, over time ([5]; 12 months, FIG. 3, listed as test compound): reduction | ESR 12 mths (mean) ([5]; 12 months, Westergren): 66 | painVAS (pain visual analogue scale) 12 mths (mean) ([5]; 12 months, scale 0-10 cms): 3.6 | patGlobal (patient global assessment) 12 mths (mean) ([5]; 12 months, scale 0-10 cms): 3.4 | phyGlobal (physician global assessment) 12 mths (mean) ([5]; 12 months, scale 0-10 cms): 2.6 | HAQ (Health Assessment Questionnaire) Baseline (mean) ([5]; Baseline): 8.8 | HDL BASELINE ([5]; Baseline): 44.6 | LDL BASELINE ([5]; Baseline): 117.08 | HDL/LDL BASELINE ([5]; Baseline ratio): 0.41 | JCSW (Joint count swelling) Baseline (mean) ([5]; Baseline, 66 joints): 9.5 | JCPT (Joint Count Pain/Tenders) Baseline (mean) ([5]; Baseline, 68 joints, 16 mg per kg body weight): 24.3 | ESR Baseline (mean) ([5]; Baseline, Westergren): 61.4 | painVAS (pain visual analogue scale) Baseline (mean) ([5]; Baseline, scale 0-10 cms): 6.6 | patGlobal (patient global assessment) Baseline (mean) ([5]; Baseline, scale 0-10 cms): 6.4 | phyGlobal (physician global assessment) Baseline (mean) ([5]; Baseline, scale 0-10 cms): 5.7 | Patients in Clinical Remission: Duration (Months) ([5]; Patient No. 019): 8 Months | Patients in Clinical Remission: Duration (Months) ([5]; Patient No. 035*, ACR remission, ESR <30 mm): 3 Months | Patients in Clinical Remission: Duration (Months) ([5]; Patient No. 037*, ACR remission, ESR <30 mm): 3 Months | Patients in Clinical Remission: Duration (Months) ([5]; Patient No. 038*, ACR remission, ESR <30 mm): 3 Months | Patients in Clinical Remission: Duration (Months) ([5]; Patient No. 049): 5 Months | Patients in Clinical Remission: Duration (Months) ([5]; Patient No. 051): 2 Months | Patients in Clinical Remission: Duration (Months) ([5]; Patient No. 054*, ACR remission, ESR <30 mm): 3 Months | Patients in Clinical Remission: Duration (Months) ([5]; Patient No. 057): 6 Months | Patients in Clinical Remission: Duration (Months) ([5]; Patient No. 059): 5 Months | Patients in Clinical Remission: Duration (Months) ([5]; Patient No. 112*, ACR remission, ESR <30 mm): 7 Months | Serum albumin ([5]; at 12 months, printed 95% CI—0.35, −2.90, listed as test compound): significant improvements | Blood Urea Nitrogen ([5]; at 12 months, printed (95%) CI 1.2, 35, listed as test compound): significant improvements | ESR Mean change ([5]; baseline to 12 months): −3.05 | Adverse alterations in routine haematology, biochemistry (renal and hepatic) and metabolic parameters ([5]; human, in vivo): no significant adverse alterations | HDL/LDL ratio of rheumatic patients after treatment ([5]; human, in vivo): 0.45 | Laboratory values for SGOT, SGTP, GGT, Serum bilirubin and Serum creatinine ([5]; human, in vivo): No significant changes | Side-effects recorded ([5]; human, in vivo): Minor side-effects | HDL MEAN CHANGE ([5]; mean change from baseline): −1.57 | HDL/LDL MEAN CHANGE ([5]; mean change from baseline): −6.1 | LDL MEAN CHANGE ([5]; mean change from baseline): 12.7 | ACR 50 improvement response (patients responding) ([5]; one year study): 40% | Patients who satisfied the ACR criteria for remission that also includes the ESR response ([5]; one year study): 5 patients | ACR 20 improvement response (patients responding) ([5]; one year study, 20% improvement in ACR factors): 80% | All clinical efficacy measures (ACR core set), overall result in words ([5]; one year study, P<0.05, listed as test compound): significant disease modifying anti-arthritic action | Patients completely asymptomatic as per ACR core set clinical measures (percent) [5, 9]: 11.9% | Patients completely asymptomatic as per ACR core set clinical measures / remission of disease [5, 9]: 10 patients | C-reactive protein After 10 Day Treatment [6]: Negative (Normal range of CRP: up to 6 mg/L. Below this level is considered to be negative) | C-reactive protein Before Treatment [6]: Negative (Normal range of CRP: up to 6 mg/L. Below this level is considered to be negative) | C-reactive protein in FCA chronic arthritis model (in words) ([6]; after treatment): decrease in C-reactive protein | Anti-inflammatory activity (% Inhibition) in FCA induced arthritis Day 18 ([7]; Dose 50 mg/kg): 18.04% | Anti-inflammatory activity (% Inhibition) in FCA induced arthritis Day 23 ([7]; Dose 50 mg/kg, treatment 13th to 23rd day): 29.07* % | Anti-inflammatory activity (% Inhibition) in FCA induced arthritis Day 18 ([7]; Dose 100 mg/kg): 32.38% | Anti-inflammatory activity (% Inhibition) in FCA induced arthritis Day 23 ([7]; Dose 100 mg/kg, treatment 13th to 23rd day (text values print no day), 100 mg/kg): 52.81* % | Anti-inflammatory activity (% Inhibition) in FCA induced arthritis Day 23 ([7]; Dose 100 mg/kg, treatment 13th to 23rd day (text values print no day), listed as test compound, 100 mg/kg): 52% and 56% | Anti-inflammatory activity (% Inhibition) in FCA induced arthritis Day 18 ([7]; Dose 200 mg/kg): 25.41% | Anti-inflammatory activity (% Inhibition) in FCA induced arthritis Day 23 ([7]; Dose 200 mg/kg, treatment 13th to 23rd day): 56.55* % | Anti-inflammatory activity (% Inhibition) in Cotton pellet Granuloma ([2]; Dose 50 mg/kg): 24.2* % | Anti-inflammatory activity (% Inhibition) in Cotton pellet Granuloma ([2]; Dose 100 mg/kg, 100 mg/kg): 33.2* % | Anti-inflammatory activity (% Inhibition) in Cotton pellet Granuloma ([2]; Dose 100 mg/kg, listed as test compound, 100 mg/kg): 32.3% | Anti-inflammatory activity (% Inhibition) in Cotton pellet Granuloma ([2]; Dose 200 mg/kg): 39.4** % | Anti-inflammatory activity (% Inhibition) in Carrageenan model In 3 Hrs. ([3]; Dose 50 mg/kg): 26.49* % | Anti-inflammatory activity (% Inhibition) in Carrageenan model In 3 Hrs. ([3]; Dose 100 mg/kg): 32.54* % | Anti-inflammatory activity (% Inhibition) in Carrageenan model In 3 Hrs. ([3]; Dose 100 mg/kg, listed as test compound): 32.44% | Anti-inflammatory activity (% Inhibition) in Carrageenan model In 3 Hrs. ([3]; Dose 200 mg/kg): 34.44* % | Concentration of TNF-α in pg/mL Day 0 [4]: 36.8 pg/mL | Concentration of TNF-α in pg/mL Day 13 [4]: 45.3 pg/mL | Concentration of TNF-α in pg/mL Day 21 ([4]; Day 21): 36.1 pg/mL | Concentration of TNF-α in pg/mL Day 21 ([4]; Day 21, listed as experimental drug): inhibits TNF-α

Cc1oncc1C(=O)Nc1ccc(C(F)(F)F)cc1 [Leflunamide, reference compound]
C-reactive protein After 10 Day Treatment [6]: Negative (Normal range of CRP: up to 6 mg/L. Below this level is considered to be negative) | C-reactive protein Before Treatment [6]: Negative (Normal range of CRP: up to 6 mg/L. Below this level is considered to be negative) | Anti-inflammatory activity (% Inhibition) in FCA induced arthritis Day 18 ([7]; Dose 10 mg/kg): 35.22* % | Anti-inflammatory activity (% Inhibition) in FCA induced arthritis Day 23 ([7]; Dose 10 mg/kg, treatment 13th to 23rd day): 76.55** %

Source: patent US20090012014A1, “Compound, Composition and a Process Thereof” (INDUS BIOTECH PVT. LTD, priority 2007, published 2009)
